What all share (assay type): physicochemical
Data set [1] is described as follows: Evaluation of durability of optically anisotropic layer (moisture-heat resistance test). Conditions: rate of change in Re of cured layer (25 parts compound, 75 parts L-1), 136 hours at 100° C., humidity 95%. The method, then: (§1) As shown below, the light resistance and the durability of the optically anisotropic layer produced using the composition containing each of the compounds A-1 to A-11 and the compounds B-1 and B-2 were evaluated.
(§2) A coating liquid having the following composition was prepared and applied by spin-coating, onto a rubbing-treated glass attached with an alignment film. Each composition was irradiated with ultraviolet rays of 300 mJ/cm^2 through a filter that cuts light having a wavelength of 350 nm or less on a hot plate which had been heated to a temperature at which a nematic phase is shown, whereby an optically anisotropic layer for a light resistance/durability test was produced.
(§3) The polymerizable liquid crystal compound L-1 is a mixture obtained by mixing at a
(§4) ratio of the following L-1-1/L-1-2/L-1-3=84/14/2 (in terms of mass ratio).
(§5) Rate of change in Re (%)=[100×{|(Re after test)−(Re before test)|}/(Re before test)]
(§6) Re was measured with Axoscan manufactured by Axometrics Inc. at a wavelength of 550 nm, and the measurement temperature was set to room temperature.
The produced optically anisotropic layer was allowed to be left for 136 hours at 100° C. and a humidity of 95%, whereby a moisture-heat resistance test was carried out. The rate of change in Re before and after the durability test was evaluated, the durability in a case where the rate of change in Re was less than 10% was evaluated as A, and the durability in a case where the rate of change in Re was 10% or more was evaluated as B. The smaller the rate of change in Re, the more excellent the durability.

Data set [2] is described as follows: Evaluation of liquid crystallinity (hot stage, polarization microscope). The arrangement: key: A case of having liquid crystallinity was evaluated as A; a case of having no liquid crystallinity was evaluated as B. Conditions: heated on a hot stage. As to the method:
The respective compounds (the compounds A-1 to A-11 and the compounds B-1 and B-2) were heated on a hot stage and observed with a polarization microscope, and the phase transition temperature was measured to evaluate the presence or absence of the liquid crystallinity. A case of having liquid crystallinity was evaluated as A, and a case of having no liquid crystallinity was evaluated as B. The results are shown in Table 1.
Since the compound A-8 has melting points of 200° C. or higher and undergoes a polymerization reaction during heating, liquid crystallinity could not be evaluated.

A short description of data set [3]: Evaluation of light resistance of optically anisotropic layer (Super Xenon Weather Meter). Conditions: rate of change in Re of cured layer (25 parts compound, 75 parts L-1), 5 million lx, 50 hours, 63° C., 50% RH, oxygen-blocking. The method, then:
as §1, §2, §3, §4
The produced optically anisotropic layers for light resistance/durability tests were irradiated with light using a Super Xenon Weather Meter SX75 manufactured by Suga Test Instruments Co., Ltd. Using KU-1000100 manufactured by King Seisakusho Co., Ltd. as a UV cut filter, a light resistance test was carried out by irradiation with 5 million lx of light for 50 hours under an oxygen-blocking condition. The temperature of the specimen to be tested (the temperature inside the test device) was set to 63° C. The relative humidity in the test device was 50% RH.
The Re of the optically anisotropic layer before and after the light resistance test was measured, the light resistance in a case where the rate of change in Re described below was less than 10% was evaluated as A, and the light resistance in a case where the rate of change in Re was 10% or more was evaluated as B. The smaller the rate of change in Re, the more excellent the light resistance.
as §5, §6

Data set [4] in a line: Evaluation of solubility in cyclopentanone. Particulars: precipitation concentration in cyclopentanone at 25° C. As to the method: The solubility of each of the compounds (the compounds A-1 to A-11 and the compounds B-1 and B-2) in cyclopentanone was evaluated.
The nature of data set [5]: Measurement of Δn (refractive index anisotropy), wedge-shaped liquid crystal cell. Conditions: 550 nm, 30° C. or lower limit temperature of nematic phase +0 to 10° C.; some compounds extrapolated from 1/2 mixture with L-1-1. The method, then:
The Δn of each of the compounds (the compounds A-1 to A-11 and the compounds B-1 and B-2), which are the compounds to be measured, was measured by a method using a wedge-shaped liquid crystal cell described on page 202 in the Liquid crystal handbook (edited by the liquid crystal handbook editorial board, published by Maruzen Co., Ltd., 2000). Δn was defined as a measured value at a wavelength of 550 nm at 30° C. or the lower limit temperature of the nematic phase +0° C. to 10° C. In a case of a compound which is liable to crystallize or a compound having no liquid crystallinity, evaluation was carried out using a mixture thereof with the other liquid crystal compound, and Δn was estimated from the extrapolated value of the measured value thereof. The following L-1-1 was used as the other liquid crystal compound. As the above mixture, a mixture obtained by mixing at a ratio of the compound to be measured/the L-1-1=1/2 (in terms of mass ratio) was used.
A case where Δn was 0.40 or more was evaluated as A, a case where Δn was 0.35 or more and less than 0.40 was evaluated as B, a case where Δn was 0.30 or more and less than 0.35 was evaluated as C, and a case where Δn was less than 0.30 was evaluated as D. The results are shown in Table 1.

Consider ten compounds from patent US20240182785A1, “COMPOUND, COMPOSITION, CURED PRODUCT, OPTICALLY ANISOTROPIC BODY, OPTICAL ELEMENT, AND LIGHT GUIDE ELEMENT” (FUJIFILM Corporation, priority 2021, published 2024).

On to `C=CC(=O)OCCc1ccc(C#Cc2ccc(-c3ccc(COc4ccc(C#Cc5ccc(CCOC(=O)C=C)cc5)cc4C(=O)OC)cc3)cc2)cc1` [Compound A-1], for which, in data set [1], the Durability entry is listed as “A (the durability in a case where the rate of change in Re was less than 10% was evaluated as A)”. Besides, in data set [2], the Liquid crystallinity entry is “A”. Further, in data set [3], the Light resistance entry is “A (the light resistance in a case where the rate of change in Re described below was less than 10% was evaluated as A)”. In data set [4], the Solubility entry is “A (the solubility in a case where the precipitation concentration was 5% by mass or more was evaluated as A)”. The Δn result in data set [5] was “B (a case where Δn was 0.35 or more and less than 0.40 was evaluated as B)”.
On to `C=CC(=O)OCCSc1ccc(C#Cc2ccc(OCc3ccc4cc(C#Cc5ccc(SCCOC(=O)C=C)cc5)ccc4c3)c(C(=O)OC)c2)cc1` [Compound A-2], for which the Durability entry in data set [1] is reported as “A (the durability in a case where the rate of change in Re was less than 10% was evaluated as A)”. The Liquid crystallinity result in data set [2] is listed as “A”. Besides, the Light resistance entry in data set [3] was “A (the light resistance in a case where the rate of change in Re described below was less than 10% was evaluated as A)”. In data set [4], the Solubility result is “A (the solubility in a case where the precipitation concentration was 5% by mass or more was evaluated as A)”. For the same compound, the Δn entry in data set [5] is on record as “A (A case where Δn was 0.40 or more was evaluated as A)”.
The matching figures for `C=CC(=O)OCCSc1ccc(C#Cc2ccc(OCc3ccc4cc(C#Cc5ccc(SCCOC(=O)C=C)cc5)ccc4c3)c(C(=O)OCC)c2)cc1` [Compound A-3]: “A (the durability in a case where the rate of change in Re was less than 10% was evaluated as A)”, “A”, “A (the light resistance in a case where the rate of change in Re described below was less than 10% was evaluated as A)”, “A (the solubility in a case where the precipitation concentration was 5% by mass or more was evaluated as A)” and “A (A case where Δn was 0.40 or more was evaluated as A)”.
The matching figures for `C=CC(=O)OCCSc1ccc(C#Cc2cc(C)c(OCc3ccc4cc(C#Cc5ccc(SCCOC(=O)C=C)cc5)ccc4c3)c(C)c2)cc1` [Compound A-4]: “A (the durability in a case where the rate of change in Re was less than 10% was evaluated as A)”, “A”, “A (the light resistance in a case where the rate of change in Re described below was less than 10% was evaluated as A)”, “A (the solubility in a case where the precipitation concentration was 5% by mass or more was evaluated as A)” and “A (A case where Δn was 0.40 or more was evaluated as A)”.
Turning to `C=CC(=O)OCCSc1ccc(C#Cc2ccc(-c3ccc(COc4ccc(C#Cc5ccc(SCCOC(=O)C=C)cc5)cc4C(=O)OC)cc3)cc2)cc1` [Compound A-6], the Durability entry in data set [1] is given as “A (the durability in a case where the rate of change in Re was less than 10% was evaluated as A)”. Further, the Liquid crystallinity entry in data set [2] is on record as “A”. Moreover, the Light resistance result in data set [3] is reported as “A (the light resistance in a case where the rate of change in Re described below was less than 10% was evaluated as A)”. Further, the Solubility result in data set [4] is “A (the solubility in a case where the precipitation concentration was 5% by mass or more was evaluated as A)”. In addition, the Δn result in data set [5] is “A (A case where Δn was 0.40 or more was evaluated as A)”.
In the case of `COC(=O)c1cc(C#Cc2ccc(CCOC(C)=O)cc2)ccc1OCc1ccc(-c2ccc(C#Cc3ccc(CCOC(C)=O)cc3)cc2)cc1` [Compound A-7], the Durability result in data set [1] is “B (the durability in a case where the rate of change in Re was 10% or more was evaluated as B)”. Also, in data set [2], the Liquid crystallinity result was “A”. Besides, the Light resistance entry in data set [3] is on record as “A (the light resistance in a case where the rate of change in Re described below was less than 10% was evaluated as A)”. In addition, in data set [4], the Solubility result is reported as “A (the solubility in a case where the precipitation concentration was 5% by mass or more was evaluated as A)”. In addition, in data set [5], the Δn entry is “B (a case where Δn was 0.35 or more and less than 0.40 was evaluated as B)”.
Regarding `C=CC(=O)OCCSc1ccc(C#Cc2ccc(OCc3ccc4cc(C#Cc5ccc(SCCOC(=O)C=C)cc5)ccc4c3)cc2)cc1` [Compound A-8], the Durability result in data set [1] is “A (the durability in a case where the rate of change in Re was less than 10% was evaluated as A)”. In addition, in data set [3], the Light resistance entry is on record as “A (the light resistance in a case where the rate of change in Re described below was less than 10% was evaluated as A)”. In addition, in data set [4], the Solubility entry is given as “B (the solubility in a case where the precipitation concentration was less than 5% by mass was evaluated as B)”. In addition, the Δn result in data set [5] is given as “A (A case where Δn was 0.40 or more was evaluated as A)”.
For `C=CC(=O)OCCCCSc1nc2ccc(C#Cc3ccc(OCc4ccc5cc(C#Cc6ccc7nc(SCCCCOC(=O)C=C)sc7c6)ccc5c4)c(C(=O)OC)c3)cc2s1` [Compound A-9], in data set [1], the Durability result is given as “A (the durability in a case where the rate of change in Re was less than 10% was evaluated as A)”. Besides, the Liquid crystallinity entry in data set [2] was “A”. For the same compound, the Light resistance result in data set [3] is on record as “B (the light resistance in a case where the rate of change in Re was 10% or more was evaluated as B)”. The Solubility result in data set [4] was “B (the solubility in a case where the precipitation concentration was less than 5% by mass was evaluated as B)”. In addition, the Δn result in data set [5] was “A (A case where Δn was 0.40 or more was evaluated as A)”.
For `C=CC(=O)OCCSc1ccc(C#Cc2ccc(OC(=O)c3ccc4cc(C#Cc5ccc(SCCOC(=O)C=C)cc5)ccc4c3)c(C(=O)OC)c2)cc1` [Compound A-10], the Durability result in data set [1] is “A (the durability in a case where the rate of change in Re was less than 10% was evaluated as A)”. In data set [2], the Liquid crystallinity entry is reported as “A”. The Light resistance entry in data set [3] is “B (the light resistance in a case where the rate of change in Re was 10% or more was evaluated as B)”. The Solubility entry in data set [4] is recorded as “A (the solubility in a case where the precipitation concentration was 5% by mass or more was evaluated as A)”. Further, the Δn entry in data set [5] is “A (A case where Δn was 0.40 or more was evaluated as A)”.
For the compound `C=CC(=O)OCCc1ccc(C#Cc2ccc(OCc3ccc4cc(C#Cc5ccc(CCOC(=O)C=C)cc5)ccc4c3)c(C(=O)OC)c2)cc1` [Compound A-11], the Durability entry in data set [1] is “A (the durability in a case where the rate of change in Re was less than 10% was evaluated as A)”. The Liquid crystallinity entry in data set [2] was “A”. Besides, the Light resistance result in data set [3] is “A (the light resistance in a case where the rate of change in Re described below was less than 10% was evaluated as A)”. Besides, the Solubility result in data set [4] is “A (the solubility in a case where the precipitation concentration was 5% by mass or more was evaluated as A)”. Besides, the Δn result in data set [5] was “B (a case where Δn was 0.35 or more and less than 0.40 was evaluated as B)”.
